Calls of active or inactive are those of the source. No cut-off for these calls is given here.

The record followed here is ChEMBL document CHEMBL1148587, “Imidazo[1,2-a]pyrimidines as functionally selective and orally bioavailable GABA(A)alpha2/alpha3 binding site agonists for the treatment of anxiety disorders” (J Med Chem, 2006).

The subject of this test is Rattus norvegicus. Kind of test: Activity in rat elevated plus maze assay at 5 mg/kg, ip. The format is functional, organism-based. Also noted: dose 5 mg/kg.

For the compound `CNC1=Nc2ccc(Cl)cc2C(c2ccccc2)=[N+]([O-])C1`, the outcome was Active.
